{
  "source": "patent US20120077694A1",
  "about": "“TARGETS IN BREAST CANCER FOR PROGNOSIS OR THERAPY” (The Regents of the University of California, priority 2006, published 2012)",
  "data": [
    {"test_system": "HCC1954 and CAMA1 cells", "test": "Cell growth in 3D culture after shRNA knockdown", "assay_type": "cell-based, human", "conditions": "vs shRNA control", "values": [
      {"substance": "#2969 shPPFIA1: PPFIA1 shRNA hairpin, SEQ ID NO: 192 (CCGGGAGGAGATTGAAAGTCGAGTTCTCGAGAACTCGACTTTCAATCTCCTCTTTTT)", "colony size / cell growth in 3D culture": "colonies were much smaller"},
      {"substance": "#5149 shNEU3: NEU3 shRNA hairpin, SEQ ID NO: 182 (CCGGAGTGACAACATGCTCCTTCAACTCGAGTTGAAGGAGCATGTTGTCACTTTTTT)", "colony size / cell growth in 3D culture": "colonies were much smaller"},
      {"substance": "#38160 shFGF3: FGF3 shRNA hairpin, SEQ ID NO: 190 (CCGGGAGCTGGGCTATAATACGTATCTCGAGATACGTATTATAGCCCAGCTCTTTTTG)", "colony size / cell growth in 3D culture": "colonies were much smaller"}
    ]}
  ]
}
